Tested on: subjects with idiopathic hypersomnia (IH)
Experiment: Part 6 POC IH: treatment-emergent adverse events, single doses, crossover
[1] = Total (any Compound A dose), N = 8

Experimental: Part 6 consisted of a 4-way, 4-period crossover study design in approximately 8 subjects (2 subjects per sequence; minimum of 4 subjects with 1 subject per sequence). […] Treatments were administered under fasted state.
Subjects were randomized to 1 of 4 sequences. […] No food was given for at least 3 hours after dose administration (i.e., fast can be broken after the 3-hour PK time point is collected). Water was allowed ad libitum except for 1 hour before and 1 hour after study drug administration. Safety assessments including AEs, safety ECGs, vital signs, and clinical laboratory tests were conducted, and plasma PK samples were collected.
Adverse events (AEs) and serious adverse events (SAEs) were monitored continuously until the completion of the study.
Eight subjects with IH were dosed in Part 6 (POC in IH) in a randomized 4-sequence 4-period cross-over design.

SMILES: CS(=O)(=O)N[C@H]1CCCN2C(=O)COc3ccccc3C3CCC(CC3)OCC12 (stereo partly drawn) [Compound A, N-[(4S,4aR,7α,10α)-1,2,3,4,4a,5,7,8,9,10,16,17-dodecahydro-17-oxo-7,10-ethanopyrido[1,2-d][1,7,4]benzodioxaazacyclotridecin-4-yl]methanesulfonamide]
- Any SAEs (25 mg single dose, N = 8): 0 n (%)
- Any TEAE (25 mg single dose, N = 8): 7 (87.5) n (%)
- Death (25 mg single dose, N = 8): 0 n (%)
- Drug Related TEAE by Preferred Term: Cold sweat (25 mg single dose, N = 8): 1 (12.5) n (%)
- Drug Related TEAE by Preferred Term: Dizziness (25 mg single dose, N = 8): 2 (25.0) n (%)
- Drug Related TEAE by Preferred Term: Dysuria (25 mg single dose, N = 8): 1 (12.5) n (%)
- Drug Related TEAE by Preferred Term: Feeling jittery (25 mg single dose, N = 8): 1 (12.5) n (%)
- Drug Related TEAE by Preferred Term: Insomnia (25 mg single dose, N = 8): 2 (25.0) n (%)
- Drug Related TEAE by Preferred Term: Micturition urgency (25 mg single dose, N = 8): 1 (12.5) n (%)
- Drug Related TEAE by Preferred Term: Middle insomnia (25 mg single dose, N = 8): 1 (12.5) n (%)
- Drug Related TEAE by Preferred Term: Palpitations (25 mg single dose, N = 8): 1 (12.5) n (%)
- Drug Related TEAE by Preferred Term: Pollakiuria (25 mg single dose, N = 8): 4 (50.0) n (%)
- Drug Related TEAE by Preferred Term: Supraventricular extrasystoles (25 mg single dose, N = 8): 1 (12.5) n (%)
- Drug Related TEAE by Preferred Term: Tachycardia (25 mg single dose, N = 8): 1 (12.5) n (%)
- Drug Related TEAE by Preferred Term: Visual impairment (25 mg single dose, N = 8): 1 (12.5) n (%)
- Subjects with at least one TEAE (25 mg single dose, N = 8): 7 (87.5) n (%)
- Subjects with at least one treatment-related TEAE (25 mg single dose, N = 8): 7 (87.5) n (%)
- TEAE by Highest Relationship: Not Related (25 mg single dose, N = 8): 0 n (%)
- TEAE by Highest Relationship: Related (25 mg single dose, N = 8): 7 (87.5) n (%)
- TEAE by Highest Severity: Mild (25 mg single dose, N = 8): 6 (75.0) n (%)
- TEAE by Highest Severity: Moderate (25 mg single dose, N = 8): 1 (12.5) n (%)
- TEAE by Highest Severity: Severe (25 mg single dose, N = 8): 0 n (%)
- TEAE by Preferred Term: Blood creatine phosphokinase increased (25 mg single dose, N = 8): 0 n (%)
- TEAE by Preferred Term: Blood creatinine increased (25 mg single dose, N = 8): 0 n (%)
- TEAE by Preferred Term: Cold sweat (25 mg single dose, N = 8): 1 (12.5) n (%)
- TEAE by Preferred Term: Dermatitis contact (25 mg single dose, N = 8): 0 n (%)
- TEAE by Preferred Term: Dizziness (25 mg single dose, N = 8): 2 (25.0) n (%)
- TEAE by Preferred Term: Dysuria (25 mg single dose, N = 8): 1 (12.5) n (%)
- TEAE by Preferred Term: Epistaxis (25 mg single dose, N = 8): 1 (12.5) n (%)
- TEAE by Preferred Term: Feeling jittery (25 mg single dose, N = 8): 1 (12.5) n (%)
- TEAE by Preferred Term: Headache (25 mg single dose, N = 8): 1 (12.5) n (%)
- TEAE by Preferred Term: Insomnia (25 mg single dose, N = 8): 2 (25.0) n (%)
- TEAE by Preferred Term: Micturition urgency (25 mg single dose, N = 8): 1 (12.5) n (%)
- TEAE by Preferred Term: Middle insomnia (25 mg single dose, N = 8): 1 (12.5) n (%)
- TEAE by Preferred Term: Nausea (25 mg single dose, N = 8): 0 n (%)
- TEAE by Preferred Term: Neck pain (25 mg single dose, N = 8): 0 n (%)
- TEAE by Preferred Term: Palpitations (25 mg single dose, N = 8): 1 (12.5) n (%)
- TEAE by Preferred Term: Phlebitis (25 mg single dose, N = 8): 0 n (%)
- TEAE by Preferred Term: Pollakiuria (25 mg single dose, N = 8): 4 (50.0) n (%)
- TEAE by Preferred Term: Presyncope (25 mg single dose, N = 8): 0 n (%)
- TEAE by Preferred Term: Skin irritation (25 mg single dose, N = 8): 0 n (%)
- TEAE by Preferred Term: Steatorrhoea (25 mg single dose, N = 8): 0 n (%)
- TEAE by Preferred Term: Supraventricular extrasystoles (25 mg single dose, N = 8): 1 (12.5) n (%)
- TEAE by Preferred Term: Tachycardia (25 mg single dose, N = 8): 1 (12.5) n (%)
- TEAE by Preferred Term: Urinary tract infection (25 mg single dose, N = 8): 0 n (%)
- TEAE by Preferred Term: Vessel puncture site bruise (25 mg single dose, N = 8): 0 n (%)
- TEAE by Preferred Term: Vessel puncture site pain (25 mg single dose, N = 8): 1 (12.5) n (%)
- TEAE by Preferred Term: Visual impairment (25 mg single dose, N = 8): 1 (12.5) n (%)
- TEAE by Preferred Term: Vomiting (25 mg single dose, N = 8): 0 n (%)
- Tolerability (IH, 5, 12 and 25 mg): well tolerated
- Subjects with at least one TEAE (IH, N = 8, all periods): 100%
- AE Leading to Study Drug Discontinuation [1]: 0 n (%)
- Any SAEs [1]: 0 n (%)
- Any TEAE [1]: 8 n (%)
- Death [1]: 0 n (%)
- Drug Related TEAE by Preferred Term: Cold sweat [1]: 1 (12.5) n (%)
- Drug Related TEAE by Preferred Term: Dizziness [1]: 2 (25.0) n (%)
- Drug Related TEAE by Preferred Term: Dysuria [1]: 1 (12.5) n (%)
- Drug Related TEAE by Preferred Term: Feeling jittery [1]: 1 (12.5) n (%)
- Drug Related TEAE by Preferred Term: Insomnia [1]: 2 (25.0) n (%)
- Drug Related TEAE by Preferred Term: Micturition urgency [1]: 1 (12.5) n (%)
- Drug Related TEAE by Preferred Term: Middle insomnia [1]: 2 (25.0) n (%)
- Drug Related TEAE by Preferred Term: Palpitations [1]: 1 (12.5) n (%)
- Drug Related TEAE by Preferred Term: Pollakiuria [1]: 5 (62.5) n (%)
- Drug Related TEAE by Preferred Term: Supraventricular extrasystoles [1]: 1 (12.5) n (%)
- Drug Related TEAE by Preferred Term: Tachycardia [1]: 1 (12.5) n (%)
- Drug Related TEAE by Preferred Term: Visual impairment [1]: 1 (12.5) n (%)
- Subjects with at least one TEAE [1]: 8 n (%)
- Subjects with at least one treatment-related TEAE [1]: 8 (100) n (%)
- TEAE by Highest Relationship: Not Related [1]: 0 n (%)
- TEAE by Highest Relationship: Related [1]: 8 n (%)
- TEAE by Highest Severity: Mild [1]: 7 n (%)
- TEAE by Highest Severity: Moderate [1]: 1 n (%)
- TEAE by Highest Severity: Severe [1]: 0 n (%)
- TEAE by Preferred Term: Blood creatine phosphokinase increased [1]: 1 n (%)
- TEAE by Preferred Term: Blood creatinine increased [1]: 1 n (%)
- TEAE by Preferred Term: Cold sweat [1]: 1 n (%)
- TEAE by Preferred Term: Dermatitis contact [1]: 0 n (%)
- TEAE by Preferred Term: Dizziness [1]: 4 n (%)
- TEAE by Preferred Term: Dysuria [1]: 1 n (%)
- TEAE by Preferred Term: Epistaxis [1]: 1 n (%)
- TEAE by Preferred Term: Feeling jittery [1]: 1 n (%)
- TEAE by Preferred Term: Headache [1]: 3 n (%)
- TEAE by Preferred Term: Insomnia [1]: 2 n (%)
- TEAE by Preferred Term: Micturition urgency [1]: 1 n (%)
- TEAE by Preferred Term: Middle insomnia [1]: 2 n (%)
- TEAE by Preferred Term: Nausea [1]: 1 n (%)
- TEAE by Preferred Term: Neck pain [1]: 1 n (%)
- TEAE by Preferred Term: Palpitations [1]: 1 n (%)
- TEAE by Preferred Term: Phlebitis [1]: 1 n (%)
- TEAE by Preferred Term: Pollakiuria [1]: 5 n (%)
- TEAE by Preferred Term: Presyncope [1]: 1 n (%)
- TEAE by Preferred Term: Skin irritation [1]: 1 n (%)
- TEAE by Preferred Term: Steatorrhoea [1]: 1 n (%)
- TEAE by Preferred Term: Supraventricular extrasystoles [1]: 1 n (%)
- TEAE by Preferred Term: Tachycardia [1]: 1 n (%)
- TEAE by Preferred Term: Urinary tract infection [1]: 1 n (%)
- TEAE by Preferred Term: Vessel puncture site bruise [1]: 2 n (%)
- TEAE by Preferred Term: Vessel puncture site pain [1]: 1 n (%)
- TEAE by Preferred Term: Visual impairment [1]: 1 n (%)
- TEAE by Preferred Term: Vomiting [1]: 0 n (%)

— patent US20250186405A1, “Compound For Use In Treating Narcolepsy” (Alkermes, Inc., priority 2023, published 2025)
